Holding throughout (type): functional, organism-based
For experiment [1], the system named is Influenza A virus. Briefly: Antiviral activity against influenza A virus H3N2 assessed as inhibition of viral replication.
The test system of experiment [2] is Influenza A virus. Briefly: Antiviral activity against influenza A virus H5N1 assessed as inhibition of viral replication.
The next experiment relates to Influenza B virus. Put plainly: Antiviral activity against influenza B virus assessed as inhibition of viral replication.
For the next experiment, the system named is Human alphaherpesvirus 1. Put plainly: Antiviral activity against HSV1 assessed as inhibition of viral replication.
For a further experiment, the system named is Human alphaherpesvirus 2. Put plainly: Antiviral activity against HSV2 assessed as inhibition of viral replication.
For a further experiment, the system named is Hepatitis B virus. Briefly: Antiviral activity against HBV assessed as inhibition of viral DNA replication at 10 uM.
The next experiment relates to Hepatitis C virus. Put plainly: Antiviral activity against HCV assessed as inhibition of viral replication. The settings on record: Hepacivirus hominis.
Experiment [3] has as its system Influenza A virus. Briefly: Antiviral activity against influenza A virus H1N1 assessed as inhibition of viral replication.

Activity calls are given as the source filed them. No cut-off for these calls is given here.

As to `C=C(C)[C@@H]1CC[C@]2(C(=O)O)CC[C@]3(C)[C@H](CC[C@@H]4[C@@]5(C)CC[C@H](OC(=O)c6cccnc6)C(C)(C)[C@@H]5CC[C@]43C)[C@@H]12`, the outcome in the experiment with Influenza A virus [1], in the experiment on Influenza A virus [2], in the experiment with Influenza B virus, in the experiment on Human alphaherpesvirus 1 and with Human alphaherpesvirus 2 was inactive.
`C#C[C@@H]1CC[C@]2(CO)CC[C@]3(C)[C@H](CC[C@@H]4[C@@]5(C)CC[C@H](O)C(C)(C)[C@@H]5CC[C@]43C)[C@@H]12`: the result with Hepatitis B virus, with Influenza A virus [1], with Influenza A virus [2], in the experiment on Influenza B virus, with Human alphaherpesvirus 1 and in the experiment with Human alphaherpesvirus 2 was inactive. The outcome with Hepatitis C virus was Active.
In the case of `C=C(C)[C@@H]1CC[C@]2(COC(=O)/C=C/c3ccc(OC)cc3)CC[C@]3(C)[C@H](CC[C@@H]4[C@@]5(C)CC[C@H](O)C(C)(C)[C@@H]5CC[C@]43C)[C@@H]12`, in the experiment on Influenza A virus [3], the outcome was Active.
As for `C=C(C)[C@@H]1CC[C@]2(COC(=O)c3cccnc3)CC[C@]3(C)[C@H](CC[C@@H]4[C@@]5(C)CC[C@H](OC(=O)c6cccnc6)C(C)(C)[C@@H]5CC[C@]43C)[C@@H]12`, the result with Influenza A virus [1], in the experiment on Influenza A virus [2], with Influenza B virus, with Human alphaherpesvirus 1 and in the experiment on Human alphaherpesvirus 2 was inactive.
For `C[C@H]1[C@H](C)CC[C@]2(C(=O)O)CC[C@]3(C)C(=CC[C@@H]4[C@@]5(C)CC/C(=N\OCCC#N)C(C)(C)[C@@H]5CC[C@]43C)[C@H]12`, the outcome in the experiment on Influenza A virus [1], in the experiment on Influenza A virus [2], in the experiment with Influenza B virus, in the experiment on Human alphaherpesvirus 1 and with Human alphaherpesvirus 2 was inactive.
As for `C=C(C)[C@@H]1CC[C@]2(COCCCNCCC#N)CC[C@]3(C)[C@H](CC[C@@H]4[C@@]5(C)CC[C@H](OC(=O)c6cccnc6)C(C)(C)[C@@H]5CC[C@]43C)[C@@H]12`, the result with Influenza A virus [1], in the experiment on Influenza A virus [2], with Influenza B virus, in the experiment on Human alphaherpesvirus 1 and with Human alphaherpesvirus 2 was inactive.

Values taken from ChEMBL document CHEMBL1177817, “Betulin and ursolic acid synthetic derivatives as inhibitors of Papilloma virus” (Bioorg Med Chem Lett, 2010).
